Test results: BindingDB's records for doi:10.1016/s0960-894x(99)00488-6 (Smithkline Beecham Pharmaceuticals, 1999)

Biological target: Tyrosine--tRNA ligase (Staphylococcus aureus)
Assay: Compound was tested for inhibition of Staphylococcus aureus tyrosyl tRNA Synthetase

Going from N[C@@H](Cc1ccc(O)cc1)C(=O)NC(C(=O)O)c1cccc(O)c1 (stereo partly drawn) [[(S)-2-Amino-3-(4-hydroxy-phenyl)-propionylamino]-(3-hydroxy-phenyl)-acetic acid] to N[C@@H](Cc1ccc(O)cc1)C(=O)N[C@H](C(=O)O)c1ccc(O)c(O)c1 [(S)-[(S)-2-Amino-3-(4-hydroxy-phenyl)-propionylamino]-(3,4-dihydroxy-phenyl)-acetic acid], the IC50 rises from 3400 nM to 11000 nM (3.2-fold).

N[C@@H](Cc1ccc(O)cc1)C(=O)N[C@H](C(=O)O)c1ccccc1 [(S)-[(S)-2-Amino-3-(4-hydroxy-phenyl)-propionylamino]-phenyl-acetic acid] and N[C@@H](Cc1ccc(O)cc1)C(=O)NC(C(=O)O)c1ccccc1O (stereo partly drawn) [[(S)-2-Amino-3-(4-hydroxy-phenyl)-propionylamino]-(2-hydroxy-phenyl)-acetic acid] are within 1.5-fold of each other in IC50: 900 nM for the first, 800 nM for the second.

First: N[C@@H](Cc1ccc(O)cc1)C(=O)NC(C(=O)O)c1ccccc1F (stereo partly drawn) [[(S)-2-Amino-3-(4-hydroxy-phenyl)-propionylamino]-(2-fluoro-phenyl)-acetic acid]
Second: COC(=O)C(NC(=O)[C@@H](N)Cc1ccc(O)cc1)c1ccccc1O (stereo partly drawn) [[(S)-2-Amino-3-(4-hydroxy-phenyl)-propionylamino]-(2-hydroxy-phenyl)-acetic acid methyl ester]
The IC50 of the first is 6.5-fold higher: 7800 nM for the first, 1200 nM for the second.
